{"source": "patent US20240002405A1", "about": "“ANTIMICROBIAL COMPOUNDS, SYNTHESIS METHODS, AND USES THEREOF” (Ankh Life Sciences Limited, priority 2022, published 2024)", "key": {"E. coli (ATCC 25922)": {"tested_on": "E. coli (ATCC 25922)", "experiment": "Broth microdilution MIC assay, E. coli", "experimental": "(§2) The concentration of compound required to visibly stop the growth of bacteria is known as minimum inhibitory concentration (MIC). Different concentrations of the compounds are tested for the exact same number of bacteria, and the growth is monitored with time.\n(§3) Bacterial strains were purchased from the American Type Culture Collection (ATCC) for the studies.\n(§4) The MIC assay procedure follows the guidelines set by the Clinical Laboratory Sciences Institute (CLSI).\n(§5) To do this, bacteria were transferred from pure agar culture, aseptically transferred in 5 mL of Cation-Adjusted Mueller-Hinton Broth (CAMHB). The broth was incubated overnight at 35° C. to stationary phase to achieve a turbidity suspension. A spectrophotometer (SpectraMax ID5) was used to measure the turbidity (optical density—OD at 625 nm). The inoculum was prepared by adjusting the turbidity of overnight culture to 0.5 McFarland, which is equal to the defined number of bacteria 1×10^8 CFU/ml.\n(§6) (b) Compound Dilution: All compounds used in the study were dissolved in sterile ultra-pure DMSO (VWR International, PA, USA) and maintained at −80° C. Stock solution of the compound was freshly prepared the day of use or is prepared from a frozen stock solution stored at −80° C. […] The compound solution was prepared at a desired concentration in DMSO, and 1/10 dilution was performed in a sterile CAMHB medium. This 10-fold dilution of stock solution was used for a 2-fold serial dilution in a 96-well plate to observe an inhibitory effect of the compound on bacterial growth. 100 μL of diluted drug solution was transferred to a first column of the 96-well plate. 50 μL of sterile CAMHB was transferred to each well from well 2 to well 12. Next, 50 μL was removed from well 1 and added to well 2. The contents from well 2 were mixed by pipetting up and down. Next, 50 µL were removed from well 2 and added to well 3. This process was continued till well 11 is reached. 50 μL was discarded from the well 11. Each compound concentration was tested in triplicate.\n(§7) (c) Inoculation of 96-well plate: The same number of bacteria (1×10^5 CFU/mL) were prepared after 150-fold dilution of 0.5 McFarland inoculum and used to add in the wells of different drug concentrations. 50 μL of working inoculum was carefully added to each well, except the sterility well 12. Mixing is performed by gently flushing the inoculum in and out of the pipette tip four or five times, avoiding splashing and bubble formation.\n(§8) (d) Incubation: Plates were incubated at 35° C. for 24 hours without shaking or agitation.\n(§9) (e) Determination of MIC: After 18-24 hours of incubation, the plates were read for MIC. SpectraMax iD5 microplate reader was used to measure turbidity at different time points. Turbidity (OD) increases as the bacteria grow over time."}, "S. aureus (ATCC 29213) [1]": {"tested_on": "S. aureus (ATCC 29213)", "experiment": "Broth microdilution MIC assay, S. aureus", "conditions": "for MIC: Staphylococcus aureus; for concentration at which activity is shown: S. aureus", "experimental": "as §2, §3, §4, §5, §6, §7, §8, §9"}, "[2]": {"tested_on": "Candida albicans (ATCC 18804)", "experiment": "Antifungal broth microdilution MIC assay", "assay_type": "cell-based", "conditions": "Candida albicans, ATCC18804, C. albicans, read-out: MIC (antifungal growth inhibition)", "description": "Synthesized compounds were tested for antifungal activity towards the fungus strain, Candida albicans. […] Different concentrations of the compounds were tested for the exact same number of fungi, and the growth is monitored with time. MIC was determined by using the broth microdilution assay. Fungus strain, C. albicans was purchased from ATCC (ID: 18804) for the studies. […] This solution was used to make a working solution by preparing a 1:50 dilution, followed by a 1:20 dilution, with RPMI 1640 medium to obtain 2× test inoculum. The 2× inoculum is diluted 1:1 to achieve the final inoculum size (0.5×10^3 to 2.5×10^3 cells per mL). RPMI 1640 medium was used with L-glutamine and phenol red as a pH indicator but without bicarbonate and a glucose concentration of 0.2%. […] All plates were then read visually under normal laboratory lighting using a mirror viewer. Wells were scored for the growth compared to that of the drug free control well. Plates were read at 530 nm with subtraction of the blank from the reading of each well. Turbidity (OD) increases as the fungus grows over time."}, "[3]": {"tested_on": "gram positive and negative bacteria", "experiment": "Antibacterial testing against gram positive and negative bacteria", "assay_type": "cell-based", "description": "In addition to the harmaline dimers compounds, other bicyclic indole compounds (203, 233, 476/6 and 504/6,) were also tested against gram positive and negative bacteria. Particularly, the indole ethyl urea molecules 203, 233 and the tryptamide dimer molecules 476/6, 504/6, as shown below, were tested."}, "S. aureus (ATCC 29213) [4]": {"tested_on": "S. aureus (ATCC 29213)", "experiment": "Minimum bactericidal concentration (MBC) assay, S. aureus", "assay_type": "cell-based", "conditions": "Staphylococcus aureus, ATCC29213, 24 h, read-out: MBC (kills bacteria)", "description": "(§1) (f) Determination of MBC: MBC was determined by sampling all the macroscopically clear wells. Before sampling, the wells were gently mixed by flushing them with a pipette, and a 5 μL was removed and placed on an agar plate suitable for the growth of the microbe being tested. The agar plate was divided into three parts to test three trials of a single concentration. The sample was allowed to be absorbed into the agar for ˜30 minutes. The plates were then incubated for 24 hours at 37° C. After incubation, the plates were examined to determine the compound concentration at which 99.9% killing was achieved."}, "MRSA (ATCC 43300)": {"tested_on": "MRSA (ATCC 43300)", "experiment": "Minimum bactericidal concentration (MBC) assay, MRSA", "assay_type": "cell-based", "conditions": "Staphylococcus aureus", "description": "as §1"}, "E. faecalis (ATCC 29212) [5]": {"tested_on": "E. faecalis (ATCC 29212)", "experiment": "Minimum bactericidal concentration (MBC) assay, E. faecalis", "assay_type": "cell-based, Enterococcus faecalis", "description": "as §1"}, "VREF (ATCC 51299)": {"tested_on": "VREF (ATCC 51299)", "experiment": "Minimum bactericidal concentration (MBC) assay, VREF", "assay_type": "cell-based, Enterococcus faecalis", "conditions": "Enterococcus faecalis, ATCC51299, read-out: MBC (bactericidal activity)", "description": "as §1"}, "[6]": {"tested_on": "MRSA: S. aureus resistant to methicillin and oxacillin (ATCC 43300)", "experiment": "Broth microdilution MIC assay, MRSA", "conditions": "for MIC: Staphylococcus aureus, ATCC43300|MRSA, read-out: MIC (bacterial growth inhibition)", "experimental": "as §2, §3, §4, §5, §6, §7, §8, §9"}, "[7]": {"tested_on": "VREF: E. faecalis resistant to vancomycin (ATCC 51299)", "experiment": "Broth microdilution MIC assay, VREF", "conditions": "Enterococcus faecalis, ATCC51299, read-out: MIC (bacterial growth inhibition)", "experimental": "as §2, §3, §4, §5, §6, §7, §8, §9"}, "E. faecalis (ATCC 29212) [8]": {"tested_on": "E. faecalis (ATCC 29212)", "experiment": "Broth microdilution MIC assay, E. faecalis", "conditions": "Enterococcus faecalis, ATCC29212, read-out: MIC (bacterial growth inhibition)", "experimental": "as §2, §3, §4, §5, §6, §7, §8, §9"}, "[9]": {"tested_on": "engineered Salmonella typhimurium strain (umuC, β-galactosidase)", "text": "The EBPI UMU-ChromoTest™ assay is used for the detection and quantification of genotoxicity of compounds and is based on the International Organization for Standardization protocol ISO 13829. The UMU-ChromoTest™ assay utilizes a native bacterial mechanism for the detection of compound genotoxicity. The bacteria used for the assay is an engineered Salmonella typhimurium strain developed to include a gene coding for the β-galactosidase (β-gal) enzyme tethered to the umuC, a damage response gene. DNA damage activates the SOS system to transcribe β-gal proportional to the level of SOS induction. The UMU-ChromoTest™ bacterial strain has modifications to increase sensitivity to genotoxins with (a) increased sensitivity for even limited damage, (b) modified outer membrane of the cell to increase permeability to exogenous materials, and (c) production of a color change on addition to chromogenic substrate (ONPG), which is a quantitative measure of genotoxic damage to bacterial DNA.\nRehydration of Dried Bacteria and Culture Growth: The bacteria were rehydrated and incubated at 37° C. for 16-18 hours. OD600 of the overnight culture should be 0.5 or at least above 0.1 at 600 nm.\nSample Preparation and Plate Setup: The dimer compounds were dissolved in DMSO. All dilution and controls were made in the solvent of 10% DMSO in sterile 0.85% saline. The pH of the compounds was adjusted to 7.0±0.2 before incubation with bacteria to facilitate bacterial growth and prevent degradation of ONPG later in the assay. The solutions of hydrochloric acid and sodium hydroxide were used to adjust pH with minimal addition volumes to prevent excessive sample dilution. Six samples were run at 4 dilutions at a time.\nPreliminary Dilution of Bacteria: The overnight bacterial culture was diluted to 50% by performing a reinoculation with 5 mL of overnight growth and 5 mL of fresh Growth media. The reinoculated bacteria was inoculated for 1.5 hours at 37° C. The OD600 should be approximately 80% of the reading from overnight growth or slightly higher.\nPreparation of Plate A: Distilled water (180 μL) was added to all wells, except for rows A to F, columns 1 to 3 and row H, columns 1 to 6. Rows A to F are used for 6 compounds per plate. The test compounds (360 μL) were added to the first three wells (three replicates) of the same microplate, such that wells 1-3 were a triplicate set of the highest concertation of test compound (360 μL). Wells 4-12 each contained 180 μL of distilled water. For dilution, half of the contents (180 μL) from wells 1-3 was transferred to wells 4-6 which makes a second triplicate set. For a third dilution, half of the contents from wells 4-6 were transferred to 7-9, and for the fourth triplicate set, half of the contents from wells 7-9 was transferred to 10-12. […]"}, "[10]": {"conditions": "ATCC29213, read-out: MIC (bacterial growth inhibition), S. aureus, time not given"}}, "note": "Where a name gives a salt, the structure may show the parent alone. Read-outs that look alike come from different tables or passages of the source.", "data": [{"smiles": "COc1ccc2c3c([nH]c2c1)C(/C=C/c1ccccc1N)=NCC3", "note": "[GK317]", "values": [{"measurement": "MIC (bacterial growth inhibition)", "setting": "E. coli (ATCC 25922); E. coli", "result": "didn't show any activity"}, {"measurement": "MIC", "setting": "S. aureus (ATCC 29213) [1]; [10]", "result": 100, "unit": "µg/mL"}]}, {"smiles": "COc1ccc2c3c([nH]c2c1)C(/C=C/c1cc(C(=O)O)ccc1N)=NCC3", "note": "[GK360]", "values": [{"measurement": "MIC", "setting": "[2]; after 24 hours of incubation", "result": 50, "unit": "µg/mL"}, {"measurement": "concentration showing ~50% growth inhibition", "setting": "E. coli (ATCC 25922); E. coli", "result": 0.78, "unit": "µg/mL"}, {"measurement": "MIC", "setting": "S. aureus (ATCC 29213) [1]; [10]", "result": 12.5, "unit": "µg/mL"}]}, {"smiles": "COc1ccc2[nH]cc(CCNC(N)=O)c2c1", "note": "[Compound 233]", "values": [{"measurement": "bacteriostatic/bactericidal activity", "setting": "[3]", "result": "no bacteriostatic/bactericidal activity observed"}]}, {"smiles": "CN[C@H](CC(C)C)C(=O)N[C@H]1C(=O)N[C@@H](CC(N)=O)C(=O)N[C@H]2C(=O)N[C@H]3C(=O)N[C@H](C(=O)N[C@H](C(=O)O)c4cc(O)cc(O)c4-c4cc3ccc4O)[C@H](O)c3ccc(c(Cl)c3)Oc3cc2cc(c3O[C@@H]2O[C@H](CO)[C@@H](O)[C@H](O)[C@H]2O[C@H]2C[C@](C)(N)[C@H](O)[C@H](C)O2)Oc2ccc(cc2Cl)[C@H]1O", "note": "[Vancomycin, reference compound]", "values": [{"measurement": "MBC", "setting": "S. aureus (ATCC 29213) [4]", "result": 1.56, "unit": "µg/mL"}, {"measurement": "MBC", "setting": "MRSA (ATCC 43300)", "result": 1.56, "unit": "µg/mL"}, {"measurement": "MBC (kills bacteria)", "setting": "E. faecalis (ATCC 29212) [5]", "result": 6.25, "unit": "µg/mL"}, {"measurement": "MBC", "setting": "VREF (ATCC 51299)", "result": "> 100", "unit": "µg/mL"}, {"measurement": "MIC", "setting": "[6]", "result": 1.56, "unit": "µg/mL"}, {"measurement": "MIC", "setting": "[7]", "result": 25, "unit": "µg/mL"}, {"measurement": "MIC", "setting": "S. aureus (ATCC 29213) [1]; ATCC29213, read-out: MIC (bacterial growth inhibition)", "result": 1.56, "unit": "µg/mL"}, {"measurement": "MIC", "setting": "E. faecalis (ATCC 29212) [8]", "result": 3.12, "unit": "µg/mL"}]}, {"smiles": "COc1ccc2c3c([nH]c2c1)C(CC(CC1=NCCc2c1[nH]c1cc(OC)ccc21)c1ccc(C(F)(F)F)nc1)=NCC3", "note": "[GK585]", "values": [{"measurement": "MBC", "setting": "S. aureus (ATCC 29213) [4]; S. aureus", "result": "> 146", "unit": "µg/mL"}, {"measurement": "MBC", "setting": "MRSA (ATCC 43300); MRSA, read-out: MBC", "result": "> 146", "unit": "µg/mL"}, {"measurement": "MBC", "setting": "MRSA (ATCC 43300); MRSA, read-out: MRSA-MBC", "result": "> 250", "unit": "µM"}, {"measurement": "genotoxicity", "setting": "[9]; at 12.5 and 25 μM", "result": "no genotoxicity"}, {"measurement": "genotoxicity", "setting": "[9]; at 50 and 100 μM", "result": "interfered with testing protocols"}, {"measurement": "MIC", "setting": "[6]", "result": 73.2, "unit": "µg/mL"}, {"measurement": "MIC (bacterial growth inhibition)", "setting": "E. coli (ATCC 25922); E. coli", "result": "No bacteriostatic or bactericidal activities were observed"}, {"measurement": "MIC", "setting": "S. aureus (ATCC 29213) [1]; [10]", "result": 73.2, "unit": "µg/mL"}]}, {"smiles": "COc1ccc2c3c([nH]c2c1)C(CC(CC1=NCCc2c1[nH]c1cc(OC)ccc21)c1c[nH]c2ccc(C(=O)O)cc12)=NCC3", "note": "[GK599.HCl]", "values": [{"measurement": "concentration at which activity is shown", "setting": "[6]; MRSA", "result": 12.5, "unit": "µg/mL"}, {"measurement": "concentration at which activity is shown", "setting": "E. coli (ATCC 25922); E. coli", "result": 50, "unit": "µg/mL"}, {"measurement": "concentration at which activity is shown", "setting": "S. aureus (ATCC 29213) [1]", "result": 12.5, "unit": "µg/mL"}]}, {"smiles": "COc1ccc2c3c([nH]c2c1)C(/C=C/c1cc(Br)ccc1N)=NCC3", "note": "[GK395]", "values": [{"measurement": "MIC", "setting": "[2]; after 48 hours of incubation", "result": 50, "unit": "µg/mL"}, {"measurement": "concentration showing ~50% growth inhibition", "setting": "E. coli (ATCC 25922); E. coli", "result": 3.5, "unit": "µg/mL"}, {"measurement": "MIC", "setting": "S. aureus (ATCC 29213) [1]; [10]", "result": 25, "unit": "µg/mL"}]}, {"smiles": "COc1ccc2c3c([nH]c2c1)C(CC(CC1=NCCc2c1[nH]c1cc(OC)ccc21)C1CC1)=NCC3", "note": "[GK480]", "values": [{"measurement": "concentration at which activity is shown", "setting": "E. coli (ATCC 25922); E. coli", "result": 50, "unit": "µg/mL"}, {"measurement": "concentration at which activity is shown", "setting": "S. aureus (ATCC 29213) [1]", "result": 3.25, "unit": "µg/mL"}]}, {"smiles": "COc1ccc2c(CCNC(=O)CCCC(=O)NCCc3c[nH]c4cc(OC)ccc34)c[nH]c2c1", "note": "[476/6]", "values": [{"measurement": "bacteriostatic/bactericidal activity", "setting": "[3]", "result": "no bacteriostatic/bactericidal activity observed"}]}, {"smiles": "COc1ccc2c3c([nH]c2c1)C(/C=C\\c1cc(Br)ccc1/N=C/c1cc(Br)ccc1N)=NCC3", "note": "[GK578, 4-bromo-2-((E)-((4-bromo-2-((Z)-2-(7-methoxy-4,9-dihydro-3H-pyrido[3,4-b]indol-1-yl)vinyl)phenyl)imino)methyl)aniline]", "values": [{"measurement": "concentration showing significant reduction in growth", "setting": "E. coli (ATCC 25922); E. coli", "result": 3.12, "unit": "µg/mL"}, {"measurement": "inhibition in growth", "setting": "E. coli (ATCC 25922); incubated with E. coli for 10-75 hrs", "result": 50, "unit": "%"}]}]}
